ChEMBL document CHEMBL3352668, “Synthesis and antibacterial evaluation of new, unsymmetrical triaryl bisamidine compounds” (Bioorg Med Chem Lett, 2014)
≈ marks a conversion by molar mass, not a printed value.

Columns and labels:
[1] = system: Enterococcus faecalis; assay: Antimicrobial activity against vancomycin-resistant Enterococcus faecalis ATCC 51575 by CLSI method; type: functional; settings: Enterococcus faecalis, ATCC 51575; read-out: MIC
[2] = system: Bacillus anthracis; assay: Antimicrobial activity against Bacillus anthracis Sterne by CLSI method; type: functional; settings: Bacillus anthracis, Sterne; read-out: MIC
[3] = system: Pseudomonas aeruginosa; assay: Antimicrobial activity against Pseudomonas aeruginosa PAO1 by CLSI method; type: functional; settings: Pseudomonas aeruginosa, PAO1; read-out: MIC
[4] = system: Klebsiella pneumoniae; assay: Antimicrobial activity against Klebsiella pneumoniae 13882 by CLSI method; type: functional; settings: Klebsiella pneumoniae, 13882; read-out: MIC
[5] = system: Escherichia coli; assay: Antimicrobial activity against TolC-deficient Escherichia coli by CLSI method; type: functional; settings: Escherichia coli; read-out: MIC
[6] = system: Staphylococcus aureus; assay: Antimicrobial activity against methicillin-resistant Staphylococcus aureus 1094 by CLSI method; type: functional; settings: Staphylococcus aureus, 1094; read-out: MIC
[7] = system: Bacillus subtilis; assay: Antimicrobial activity against Bacillus subtilis BD54 by CLSI method; type: functional; settings: Bacillus subtilis, BD54; read-out: MIC
[8] = system: Escherichia coli; assay: Antimicrobial activity against TolC+ Escherichia coli 700 by CLSI method; type: functional; settings: Escherichia coli, 700; read-out: MIC
[9] = Cytotoxicity against human HeLa cells by MTS assay; type: cell-based; settings: HeLa cells
[10] = system: Pseudomonas aeruginosa; assay: Antimicrobial activity against mexAB-oprM deficient Pseudomonas aeruginosa PAO1 harboring by CLSI method; type: functional

Cc1c(-c2ccc(-c3cc4ccc(C5=NCCCN5)cc4o3)cc2)[nH]c2cc(C3=NCCCN3)ccc12
MIC [1]: 0.16 µg/mL (≈ 0.328 µM)
MIC [2]: 0.08 µg/mL (≈ 0.164 µM)
MIC [3]: 1.25 µg/mL (≈ 2.56 µM)
MIC [4]: 0.31 µg/mL (≈ 0.636 µM)
MIC [5]: 0.31 µg/mL (≈ 0.636 µM)
MIC [6]: 0.16 µg/mL (≈ 0.328 µM)
MIC [7]: 0.08 µg/mL (≈ 0.164 µM)
MIC [8]: 0.31 µg/mL (≈ 0.636 µM)
CC50 [9]: 1.5 µg/mL (≈ 3.08 µM)

CC1CNC(c2ccc3cc(-c4ccc(-c5ccc(N(C)C)cc5)cc4)[nH]c3c2)=N1 (stereo unspecified)
MIC [1]: 3.3 µg/mL (≈ 8.36 µM)
MIC [2]: 2.1 µg/mL (≈ 5.32 µM)
MIC [3]: > 80 µg/mL
MIC [4]: > 80 µg/mL
MIC [5]: > 80 µg/mL
MIC [6]: 1.04 µg/mL (≈ 2.64 µM)
MIC [7]: 0.63 µg/mL (≈ 1.6 µM)
MIC [8]: > 80 µg/mL
CC50 [9]: ≤ 0.63 µg/mL

CC1CNC(c2ccc3cc(-c4ccc(-c5cnc(N6CCOCC6)nc5)cc4)[nH]c3c2)=N1 (stereo unspecified)
MIC [1]: > 80 µg/mL
MIC [2]: 22.5 µg/mL (≈ 51.3 µM)
MIC [3]: > 80 µg/mL
MIC [4]: > 80 µg/mL
MIC [5]: 60 µg/mL (≈ 137 µM)
MIC [6]: > 80 µg/mL
MIC [7]: 10 µg/mL (≈ 22.8 µM)
MIC [8]: > 80 µg/mL
CC50 [9]: 1.3 µg/mL (≈ 2.96 µM)

FC1CN=C(c2ccc3cc(-c4ccc(-c5cc6ccc(C7=NCC(F)CN7)cc6o5)cn4)[nH]c3c2)NC1 (stereo unspecified)
MIC [1]: 0.63 µg/mL (≈ 1.23 µM)
MIC [2]: 0.63 µg/mL (≈ 1.23 µM)
MIC [3]: 8.3 µg/mL (≈ 16.3 µM)
MIC [4]: 2.5 µg/mL (≈ 4.9 µM)
MIC [5]: 0.31 µg/mL (≈ 0.607 µM)
MIC [6]: 0.83 µg/mL (≈ 1.63 µM)
MIC [7]: 0.16 µg/mL (≈ 0.313 µM)
MIC [8]: 8.3 µg/mL (≈ 16.3 µM)
CC50 [9]: 19.6 µg/mL (≈ 38.4 µM)

CC1CNC(c2ccc3cc(-c4ccc(-c5cnc(N6CCCC6)nc5)cc4)[nH]c3c2)=N1 (stereo unspecified)
MIC [1]: > 80 µg/mL
MIC [2]: 40 µg/mL (≈ 94.7 µM)
MIC [3]: > 80 µg/mL
MIC [4]: > 80 µg/mL
MIC [5]: 40 µg/mL (≈ 94.7 µM)
MIC [6]: 40 µg/mL (≈ 94.7 µM)
MIC [7]: 40 µg/mL (≈ 94.7 µM)
MIC [8]: > 80 µg/mL
CC50 [9]: 1.1 µg/mL (≈ 2.6 µM)

OC1CN=C(c2ccc3cc(-c4ccc(-c5cc6ccc(C7=NCC(O)CN7)cc6o5)cc4)[nH]c3c2)NC1 (stereo unspecified)
MIC [1]: 0.31 µg/mL (≈ 0.613 µM)
MIC [2]: 0.55 µg/mL (≈ 1.09 µM)
MIC [3]: 6.3 µg/mL (≈ 12.5 µM)
MIC [10]: 15 µg/mL (≈ 29.7 µM)
MIC [4]: 1.09 µg/mL (≈ 2.16 µM)
MIC [5]: 0.16 µg/mL (≈ 0.316 µM)
MIC [6]: 0.31 µg/mL (≈ 0.613 µM)
MIC [7]: 0.08 µg/mL (≈ 0.158 µM)
MIC [8]: 2.5 µg/mL (≈ 4.94 µM)
CC50 [9]: 11.9 µg/mL (≈ 23.5 µM)

OC1CN=C(c2ccc3cc(-c4ccc(-c5cc6ccc(C7=NCC(O)CN7)cc6o5)s4)[nH]c3c2)NC1 (stereo unspecified)
MIC [1]: 2.5 µg/mL (≈ 4.89 µM)
MIC [2]: 1.25 µg/mL (≈ 2.44 µM)
MIC [3]: 40 µg/mL (≈ 78.2 µM)
MIC [4]: 15 µg/mL (≈ 29.3 µM)
MIC [5]: 0.47 µg/mL (≈ 0.919 µM)
MIC [6]: 1.88 µg/mL (≈ 3.67 µM)
MIC [7]: 0.43 µg/mL (≈ 0.84 µM)
MIC [8]: 5 µg/mL (≈ 9.77 µM)
CC50 [9]: 12.7 µg/mL (≈ 24.8 µM)

COC1CN=C(c2ccc3cc(-c4ccc(-c5cc6ccc(C7=NCC(OC)CN7)cc6o5)cc4)[nH]c3c2)NC1 (stereo unspecified)
MIC [1]: 0.63 µg/mL (≈ 1.18 µM)
MIC [2]: 0.31 µg/mL (≈ 0.581 µM)
MIC [3]: > 80 µg/mL
MIC [4]: 1.25 µg/mL (≈ 2.34 µM)
MIC [5]: 0.24 µg/mL (≈ 0.45 µM)
MIC [6]: 0.31 µg/mL (≈ 0.581 µM)
MIC [7]: 0.08 µg/mL (≈ 0.15 µM)
MIC [8]: 2.5 µg/mL (≈ 4.68 µM)
CC50 [9]: 6 µg/mL (≈ 11.2 µM)

OC1CN=C(c2ccc3cc(-c4ccc(-c5cc6ccc(C7=NCC(O)CN7)cc6o5)cn4)[nH]c3c2)NC1 (stereo unspecified)
MIC [1]: 5 µg/mL (≈ 9.87 µM)
MIC [2]: 1.09 µg/mL (≈ 2.15 µM)
MIC [3]: 25 µg/mL (≈ 49.4 µM)
MIC [4]: 8.8 µg/mL (≈ 17.4 µM)
MIC [5]: 0.63 µg/mL (≈ 1.24 µM)
MIC [6]: 2.5 µg/mL (≈ 4.94 µM)
MIC [7]: 3.75 µg/mL (≈ 7.4 µM)
MIC [8]: 80 µg/mL (≈ 158 µM)
CC50 [9]: 16.7 µg/mL (≈ 33 µM)

CC1CNC(c2ccc3cc(-c4ccc(-c5cc6ccc(C7=NC(C)CN7)cc6o5)s4)[nH]c3c2)=N1 (stereo unspecified)
MIC [1]: 0.63 µg/mL (≈ 1.31 µM)
MIC [2]: 0.52 µg/mL (≈ 1.08 µM)
MIC [3]: 26.7 µg/mL (≈ 55.7 µM)
MIC [4]: 20 µg/mL (≈ 41.7 µM)
MIC [5]: 0.63 µg/mL (≈ 1.31 µM)
MIC [6]: 1.04 µg/mL (≈ 2.17 µM)
MIC [7]: 0.31 µg/mL (≈ 0.646 µM)
MIC [8]: 1.25 µg/mL (≈ 2.61 µM)
CC50 [9]: 14.5 µg/mL (≈ 30.2 µM)

c1cc2cc(-c3ccc(-c4cnc(N5CCOCC5)nc4)cc3)[nH]c2cc1C1=NCCCN1
MIC [1]: 3.75 µg/mL (≈ 8.55 µM)
MIC [2]: 0.55 µg/mL (≈ 1.25 µM)
MIC [3]: > 80 µg/mL
MIC [4]: 70 µg/mL (≈ 160 µM)
MIC [5]: 0.63 µg/mL (≈ 1.44 µM)
MIC [6]: 7.5 µg/mL (≈ 17.1 µM)
MIC [7]: 0.78 µg/mL (≈ 1.78 µM)
MIC [8]: 35 µg/mL (≈ 79.8 µM)
CC50 [9]: 2 µg/mL (≈ 4.56 µM)

FC1CN=C(c2ccc3cc(-c4ccc(-c5cc6ccc(C7=NCC(F)CN7)cc6o5)s4)[nH]c3c2)NC1 (stereo unspecified)
MIC [1]: 0.63 µg/mL (≈ 1.22 µM)
MIC [2]: 0.31 µg/mL (≈ 0.601 µM)
MIC [3]: 53.3 µg/mL (≈ 103 µM)
MIC [4]: 2.5 µg/mL (≈ 4.85 µM)
MIC [5]: 0.31 µg/mL (≈ 0.601 µM)
MIC [6]: 0.63 µg/mL (≈ 1.22 µM)
MIC [7]: 0.16 µg/mL (≈ 0.31 µM)
MIC [8]: 1.25 µg/mL (≈ 2.42 µM)
CC50 [9]: 22.5 µg/mL (≈ 43.6 µM)

c1cc2cc(-c3ccc(-c4cnc(N5CCCC5)nc4)cc3)[nH]c2cc1C1=NCCCN1
MIC [1]: 5 µg/mL (≈ 11.8 µM)
MIC [2]: 0.63 µg/mL (≈ 1.49 µM)
MIC [3]: > 80 µg/mL
MIC [4]: > 80 µg/mL
MIC [5]: 0.63 µg/mL (≈ 1.49 µM)
MIC [6]: 2.5 µg/mL (≈ 5.92 µM)
MIC [7]: 0.63 µg/mL (≈ 1.49 µM)
MIC [8]: > 80 µg/mL
CC50 [9]: 5.7 µg/mL (≈ 13.5 µM)

CN(C)c1ccc(-c2ccc(-c3cc4ccc(C5=NCCCN5)cc4[nH]3)cc2)cc1
MIC [1]: 3.1 µg/mL (≈ 7.86 µM)
MIC [2]: 0.47 µg/mL (≈ 1.19 µM)
MIC [3]: > 80 µg/mL
MIC [4]: > 80 µg/mL
MIC [5]: > 80 µg/mL
MIC [6]: 1.09 µg/mL (≈ 2.76 µM)
MIC [7]: 0.63 µg/mL (≈ 1.6 µM)
MIC [8]: > 80 µg/mL
CC50 [9]: ≤ 0.63 µg/mL

c1cc2cc(-c3ccc(-c4cc5ccc(C6=NCCCN6)cc5o4)s3)[nH]c2cc1C1=NCCCN1
MIC [1]: 0.31 µg/mL (≈ 0.646 µM)
MIC [2]: 0.16 µg/mL (≈ 0.334 µM)
MIC [3]: 10 µg/mL (≈ 20.9 µM)
MIC [4]: 2.5 µg/mL (≈ 5.21 µM)
MIC [5]: 0.31 µg/mL (≈ 0.646 µM)
MIC [6]: 0.31 µg/mL (≈ 0.646 µM)
MIC [7]: 0.08 µg/mL (≈ 0.167 µM)
MIC [8]: 0.63 µg/mL (≈ 1.31 µM)
CC50 [9]: 8.7 µg/mL (≈ 18.1 µM)
